# Measurements as given in patent US20100248265A1, “COMPOSITIONS AND METHODS FOR DIAGNOSIS AND TREATMENT OF CANCER” (The Salk Institute for Biological Studies, priority 2009, published 2010).
# Assays:
# mTOR [1] = target: mTOR (Homo sapiens, UniProt P42345); experiment: Western blot for mTOR autophosphorylation at S2481 in cells treated with mTOR kinase inhibitors; type: cell-based; settings: actively growing Hela and MDA-MB-468 cells; 1 h at 37° C.
# Method: (§5) Whole cell lysates were then analyzed for mTOR phosphorylation at S2481. Phosphorylation of the mTORC1 substrate S6K at T389 and the mTORC2 substrate Akt at S473 were analyzed as controls.
# Akt = experiment: Western blot for mTORC2 substrate Akt phosphorylated at S473 in cells treated with mTOR kinase inhibitors; settings: 1 h at 37° C.
# Method: as §5
# S6K = experiment: Western blot for mTORC1 substrate S6K phosphorylated at T389 in cells treated with mTOR kinase inhibitors; settings: 1 h at 37° C.
# Method: as §5
# mTOR [2] = experiment: Western blot for mTOR autophosphorylation at S2481 in cells treated with mTOR kinase inhibitors; type: cell-based; settings: actively growing MEFs, U2OS, Hela and MDA-MB-468 cells; 1 h at 37° C.
# Method: as §5
# [3] = test system: ER positive breast cancer; settings: ER positive breast cancer patients; randomized trial, endocrine therapy plus everolimus; cited from earlier work
# breast cancer = settings: unselected breast cancer patients; cited from earlier work
# mTOR [4] = target: T1, mTOR (Homo sapiens, UniProt P42345+P62942); experiment: Immunoblot of whole cell lysates for mTOR phosphorylated on S2448 (rapamycin / insulin treatment); type: cell-based; settings: serum-starved HEK293 cells; 200 nM insulin for 5 min.
# T1 construct: specifically deplete endogenous mTOR, Rictor or Raptor were expressed in HEK293 cells; endogenous in cells
# Text: (§1) Antibodies and reagents. The following antibodies were purchased from Cell Signaling Technology: phospho-mTOR(S2448 and S2481), Akt and phospho-Akt (S473) rabbit polyclonal antibodies. Phospho-S6K (T389) and mTOR (mTab1) rabbit polyclonal antibodies were purchased from Millipore. Rictor and mSin1 rabbit polyclonal antibodies were purchased from Bethyl Laboratories. The anti-Raptor rabbit antiserum was developed with the antibody service from Invitrogen utilizing the peptide […], amino acid sequence 918-933 of human Raptor. Rapamycin was purchased from Sigma. Insulin and IGF-1 were purchased from Research Diagnostics, Inc.
# (§2) Cell culture, cell lysis and immunoprecipitation. […]
# (§3) Cells were rinsed 2× with cold PBS and lysed in 1 ml 50 mM Hepes pH 7.5, 150 mM NaCl, 10% glycerol, 0.3% Chaps (v/v), 1.5 mM MgCl2, 1 mM EGTA, 100 mM NaF, 500 μM sodium orthovanadate, 10 μg/ml aprotinin, and 10 μg/ml leupeptin per 10 cm tissue culture dish. […] Protein concentrations were determined using the Bio-Rad DC Protein Assay kit according to manufacturer's protocol. […]
# (§4) Because S2481 phosphorylation requires intact mTORC2, we tested whether prolonged rapamycin treatment had any effect on S2481 phosphorylation. Whole cell lysates from control and insulin-stimulated cells treated with 100 nM rapamycin for either one or 24 hr were analyzed for phosphorylation of mTOR on S2448 and S2481.
# mTORC2 = target: T2, mTORC2 (Homo sapiens, UniProt P42345+P62942); experiment: Rictor (and Raptor) immunoprecipitates analyzed by immunoblotting for bound mTOR (mTORC2 assembly); type: cell-based; settings: serum-starved HEK293 cells; 200 nM insulin for 5 min.
# T2 construct: endogenous in cells; host or cells: HEK293, U2OS, MDA-MB-231, MDA-MB-468, SKBR3, A549
# Text: as §1, §2, §3
# as §4, with “S2481. […]” for “S2481.”
# mTOR [5] = experiment: Immunoblot of whole cell lysates for mTOR phosphorylated on S2481 (rapamycin / insulin treatment); type: cell-based; settings: serum-starved HEK293 cells; 200 nM insulin for 5 min.
# Text: Antibodies and reagents. The following antibodies were purchased from Cell Signaling Technology: phospho-mTOR(S2448 and S2481), Akt and phospho-Akt (S473) rabbit polyclonal antibodies. Phospho-S6K (T389) and mTOR (mTab1) rabbit polyclonal antibodies were purchased from Millipore. Rictor and mSin1 rabbit polyclonal antibodies were purchased from Bethyl Laboratories. The anti-Raptor rabbit antiserum was developed with the antibody service from Invitrogen utilizing the peptide [sequence], amino acid sequence 918-933 of human Raptor. Rapamycin was purchased from Sigma. Insulin and IGF-1 were purchased from Research Diagnostics, Inc.
# Lentivirus-mediated gene knockdown. […]
# Virus-containing supernatants were collected 48 hr. after transfection. Cells were infected twice in the presence of 1 μg/ml polybrene, selected for puromycin resistance and analyzed 48-72 hr. post-infection. […]
# [6] = actively growing Hela and MDA-MB-468 cells
# [7] = actively growing MEFs, U2OS, Hela and MDA-MB-468 cells
Compound,phosphorylation of mTORC2 substrate Akt at S473 (Akt; [6]),phosphorylation of mTORC2 substrate Akt at S473 (Akt; [7]),phosphorylation of mTORC1 substrate S6K at T389 (S6K; [6]),phosphorylation of mTORC1 substrate S6K at T389 (S6K; [7]),mTOR autophosphorylation at S2481 (mTOR [2]),also measured
COc1ccc2c(c1OC)N=C(NC(=O)c1cccnc1)N1CCN=C21 [PIK-90],,,,,,mTOR autophosphorylation at S2481 (mTOR [1]): reduction
CC(C)n1nc(-c2cc3cc(O)ccc3[nH]2)c2c(N)ncnc21 [PP242],inhibited,inhibited,inhibited,inhibited,abolished,
CCC(=O)N1CCN(c2ccc(-n3c(=O)ccc4cnc5ccc(-c6cnc7ccccc7c6)cc5c43)cc2C(F)(F)F)CC1 [Torin1],inhibited,inhibited,inhibited,inhibited,abolished,
CO[C@H]1C[C@@H]2CC[C@@H](C)[C@@](O)(O2)C(=O)C(=O)N2CCCC[C@H]2C(=O)O[C@H]([C@H](C)C[C@@H]2CC[C@@H](OCCO)[C@H](OC)C2)CC(=O)[C@H](C)/C=C(\C)[C@@H](O)[C@@H](OC)C(=O)[C@H](C)C[C@H](C)/C=C/C=C/C=C/1C [everolimus],,,,,,effect on efficacy of endocrine therapy [3]: significantly increases the efficacy of endocrine therapy
CO[C@H]1C[C@@H]2CC[C@@H](C)[C@@](O)(O2)C(=O)C(=O)N2CCCC[C@H]2C(=O)O[C@H]([C@H](C)C[C@@H]2CC[C@@H](OC(=O)C(C)(CO)CO)[C@H](OC)C2)CC(=O)[C@H](C)/C=C(\C)[C@@H](O)[C@@H](OC)C(=O)[C@H](C)C[C@H](C)/C=C/C=C/C=C/1C [temsirolimus],,,,,,patients who responded to treatment (breast cancer): 10%
"insulin: growth factor used to stimulate serum-starved cells; purchased from Research Diagnostics, Inc.",,,,,,S2448 phosphorylation of mTOR (mTOR [4]): increased; amount of mTOR associated with either Raptor or Rictor (mTORC2): did not change; S2481 phosphorylation of mTOR (mTOR [5]): increased
